TGI data for 5 compounds are collected here from PubChem BioAssay (NCI).

Some test systems named below: PC-3 prostate; DLD-1 colon; LXFL 529 NSCLC; SNB-78 CNS; RXF-631 renal; XF 498 CNS; BT-549 breast.
Common to all, as to assay: NCI anticancer screen, dose series, 48 h

Each structure is given as a SMILES string.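 In this assay, cells in 96-well plates receive the compound at five concentrations for 48 hours. Endpoints are linearly interpolated between the surrounding concentrations. TGI marks complete inhibition of growth.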

Regarding `CC(=O)Nc1ccc(Sc2nnc(NC(C)=O)s2)cc1`, the TGI in the experiment with PC-3 prostate was more than 100 µM.

Consider `Cc1ccc(-c2cc(-c3ccco3)c(C#N)c(=O)n2C2OC(CO)C(O)C(O)C2O)cc1` (stereo not given), for which the TGI with DLD-1 colon, with LXFL 529 NSCLC and in the experiment on SNB-78 CNS was more than 100 µM each time.

The compound `Cn1c(=O)c(Cl)c(N=[N+]=[N-])c2ccccc21` yielded a TGI in the experiment with PC-3 prostate of more than 100 µM.

As to `CCOC(=O)C(=O)NC12CC3CC(CC(C3)C1)C2`, the TGI in the experiment on RXF-631 renal, in the experiment on DLD-1 colon, in the experiment on XF 498 CNS and with LXFL 529 NSCLC was more than 100 µM throughout.

`O=[N+]([O-])C(=C/c1cccs1)/C(=C\c1cccs1)[N+](=O)[O-]` returned a TGI with BT-549 breast of 4.27 µM.
